The values below come from US8574563B2 (Bristol-Myers Squibb Company, priority 2006, dated 2013).

In general, EC50 refers to the concentration needed to bring the measured effect to its halfway point.

For one test, the system named is HCV 1b-377-neo replicon cells. As to the kind of experiment: HCV replicon assay, HCV 1b-377-neo replicon cells (1b FRET). The settings on record: HCV 1b-377-neo replicon cells; HCV 1b genotype; read-out: EC50 range against HCV 1b (Table 2, Range). The test is classed as cell-based, Hepatitis C virus genotype 1b. Put shortly:
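Compounds tested in HCV genotype 1b-377-neo replicon cells with a FRET read-out. Cells resistant to a reference NS5A inhibitor through a Y2065H NS5A mutation were run alongside wild-type cells.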
Regarding `O=C(N[C@@H](C(=O)N1CCC[C@H]1c1ncc(-c2ccc(-c3ccc(-c4cnc([C@@H]5CCCN5C(=O)[C@H](NC(=O)[C@H]5CCCO5)c5ccccc5)[nH]4)cc3)cc2)[nH]1)c1ccccc1)[C@H]1CCCO1` [Example 25-1, (2R,2′R)-N,N′-(4,4′-biphenyldiylbis(1H-imidazole-5,2-diyl(2S)-2,1-pyrrolidinediyl((1R)-2-oxo-1-phenyl-2,1-ethanediyl)))ditetrahydro-2-furancarboxamide], the EC50 lay within 0.001 to 0.999 nM.

The test is the same for the next values; noted with them: Hepatitis C virus, HCV 1b-377-neo replicon cells; HCV 1b genotype; read-out: EC50 range against HCV 1b (Table 2, Range).
For the molecule `CCN(CC)[C@@H](C(=O)N1CCC[C@H]1c1ncc(-c2ccc(-c3ccc(-c4cnc([C@@H]5CCCN5C(=O)[C@H](NC(=O)OC)c5ccccc5)[nH]4)cc3)cc2F)[nH]1)c1ccccc1` [Example D39, methyl ((1R)-2-((2S)-2-(5-(4′-(2-((2S)-1-((2R)-2-(diethylamino)-2-phenylacetyl)-2-pyrrolidinyl)-1H-imidazol-5-yl)-3′-fluoro-4-biphenylyl)-1H-imidazol-2-yl)-1-pyrrolidinyl)-2-oxo-1-phenylethyl)carbamate], the EC50 lay within 0.001 to 0.999 nM.
Consider `O=C(C(c1ccccc1)c1ccccc1)N1CCC[C@H]1c1ncc(-c2ccc(-c3ccc(-c4cnc([C@@H]5CCCN5C(=O)[C@@H](c5ccccc5)N5CCCCC5)[nH]4)cc3)cc2)[nH]1` [Example 107-6, 1-((1R)-2-((2S)-2-(5-(4′-(2-((2S)-1-(diphenylacetyl)-2-pyrrolidinyl)-1H-imidazol-5-yl)-4-biphenylyl)-1H-imidazol-2-yl)-1-pyrrolidinyl)-2-oxo-1-phenylethyl) piperidine], for which the EC50 lay within 0.001 to 0.999 nM.
Still for that read-out and setting: to `COC(=O)N[C@@H](C(=O)N[C@@H](C)c1ncc(-c2cnc(-c3ccc(-c4cnc([C@@H]5CCCN5C(=O)[C@H](NC(=O)OC)c5ccccc5)[nH]4)cc3)cn2)[nH]1)c1ccccc1` [Example 152j-19, methyl ((1R)-2-((2S)-2-(5-(4-(5-(2-((1S)-1-(((2R)-2-((methoxycarbonyl)amino)-2-phenylacetyl)amino)ethyl)-1H-imidazol-5-yl)-2-pyrazinyl)phenyl)-1H-imidazol-2-yl)-1-pyrrolidinyl)-2-oxo-1-phenylethyl)carbamate] belongs 0.001 to 0.999 nM.
As for `COC(=O)N[C@H](C(=O)N1C[C@@H](F)C[C@H]1c1ncc(-c2ccc(-c3ccc(-c4cnc([C@@H]5C[C@H](F)CN5C(=O)[C@@H](NC(=O)OC)C(C)C)[nH]4)cc3)cc2)[nH]1)C(C)C` [JG-10, methyl ((1S)-1-(((2S,4S)-4-fluoro-2-(5-(4′-(2-((2S,4S)-4-fluoro-1-((2S)-2-((methoxycarbonyl)amino)-3-methylbutanoyl)-2-pyrrolidinyl)-1H-imidazol-5-yl)-4-biphenylyl)-1H-imidazol-2-yl)-1-pyrrolidinyl)carbonyl)-2-methylpropyl)carbamate], the EC50 fell in the range of 1 to 99 nM.
Regarding `CCC(C)NCC(=O)N1CCC[C@H]1c1ncc(-c2ccc(-c3ccc(-c4cnc([C@@H]5CCCN5C(=O)[C@@H](NC(=O)OC)C(C)C)[nH]4)cc3)cc2)[nH]1` (stereo partly drawn) [LS24, methyl ((1S)-1-(((2S)-2-(5-(4′-(2-((2S)-1-(N-sec-butylglycyl)-2-pyrrolidinyl)-1H-imidazol-5-yl)-4-biphenylyl)-1H-imidazol-2-yl)-1-pyrrolidinyl)carbonyl)-2-methylpropyl)carbamate], the EC50 fell in the range of 0.001 to 0.999 nM.
Consider `COC(=O)N[C@H](C(=O)N1CCC[C@H]1c1ncc(-c2ccc(-c3ccc(-c4cnc([C@@H]5CCCN5C(=O)[C@H](NC5=NCCN5C)C(C)C)[nH]4)cc3)cc2)[nH]1)C(C)C` [cj-11m, methyl ((1S)-2-methyl-1-(((2S)-2-(5-(4′-(2-((2S)-1-(N-(1-methyl-4,5-dihydro-1H-imidazol-2-yl)-D-valyl)-2-pyrrolidinyl)-1H-imidazol-5-yl)-4-biphenylyl)-1H-imidazol-2-yl)-1-pyrrolidinyl)carbonyl)propyl)carbamate], for which the EC50 lay within 1 to 99 nM.
Turning to `COC(=O)N[C@@H](C(=O)N1CCC[C@H]1c1ncc(-c2ccc(-c3ccc(-c4cnc([C@@H]5CCCN5C(=O)CN(C)C)[nH]4)cc3)cc2)[nH]1)c1ccccc1` [Example 37, methyl ((1R)-2-((2S)-2-(5-(4′-(2-((2S)-1-(N,N-dimethylglycyl)-2-pyrrolidinyl)-1H-imidazol-5-yl)-4-biphenylyl)-1H-imidazol-2-yl)-1-pyrrolidinyl)-2-oxo-1-phenylethyl)carbamate], the EC50 lay in the range of 0.001 to 0.999 nM.
The same measure, in the same setting: next, `COC(=O)N[C@@H](C)C(=O)N1CCC[C@H]1c1ncc(-c2ccc(-c3ccc(-c4cnc([C@@H]5CCCN5C(=O)[C@@H](NC(=O)OC)C(C)C)[nH]4)cc3)cc2F)[nH]1` [Example D41, methyl ((1S)-1-(((2S)-2-(5-(3′-fluoro-4′-(2-((2S)-1-(N-(methoxycarbonyl)-L-alanyl)-2-pyrrolidinyl)-1H-imidazol-5-yl)-4-biphenylyl)-1H-imidazol-2-yl)-1-pyrrolidinyl)carbonyl)-2-methylpropyl) carbamate]: 0.001 to 0.999 nM; `COC(=O)N[C@@H](C(=O)N[C@@H](C)c1ncc(-c2ccc(-c3ccc(-c4cnc([C@@H]5CCCN5C(=O)[C@H](NC(=O)OC)c5ccccc5)[nH]4)cc3)nc2)[nH]1)c1ccccc1` [Example 152j-22, methyl ((1R)-2-((2S)-2-(5-(4-(5-(2-((1S)-1-(((2R)-2-((methoxycarbonyl)amino)-2-phenylacetyl)amino)ethyl)-1H-imidazol-5-yl)-2-pyridinyl)phenyl)-1H-imidazol-2-yl)-1-pyrrolidinyl)-2-oxo-1-phenylethyl)carbamate]: 0.001 to 0.999 nM; `CC[C@@H](C)[C@H](NC)C(=O)N1CCC[C@H]1c1nc(-c2ccc(-c3ccc(-c4cnc([C@@H]5CCCN5C(=O)[C@@H](NC)[C@H](C)CC)[nH]4)cc3)cc2)c[nH]1` [Example F35, (2S,3R)-N,3-dimethyl-1-((2S)-2-(4-(4′-(2-((2S)-1-((2S,3R)-3-methyl-2-(methylamino)pentanoyl)-2-pyrrolidinyl)-1H-imidazol-5-yl)-4-biphenylyl)-1H-imidazol-2-yl)-1-pyrrolidinyl)-1-oxo-2-pentanamine]: 100 to 999 nM.
`CC(=O)CCC(=O)N1CCC[C@H]1c1ncc(-c2ccc(-c3ccc(-c4cnc([C@@H]5CCCN5C(=O)[C@@H](c5ccccc5)N5CCCCC5)[nH]4)cc3)cc2)[nH]1` [Example 107-5, 5-oxo-5-((2S)-2-(5-(4′-(2-((2S)-1-((2R)-2-phenyl-2-(1-piperidinyl)acetyl)-2-pyrrolidinyl)-1H-imidazol-5-yl)-4-biphenylyl)-1H-imidazol-2-yl)-1-pyrrolidinyl)-2-pentanone]: the EC50 lay within 0.001 to 0.999 nM.
Still for that read-out and setting: to `COC(=O)N[C@H](C(=O)N1CCC[C@H]1c1ncc(-c2ccc(-c3ccc(-c4cnc([C@@H]5CCCN5C(=O)[C@@H](Nc5cncnc5)C(C)C)[nH]4)cc3)cc2)[nH]1)C(C)C` [cj-20d, methyl ((1S)-2-methyl-1-(((2S)-2-(5-(4′-(2-((2S)-1-(N-5-pyrimidinyl-L-valyl)-2-pyrrolidinyl)-1H-imidazol-5-yl)-4-biphenylyl)-1H-imidazol-2-yl)-1-pyrrolidinyl)carbonyl)propyl)carbamate] belongs 0.001 to 0.999 nM; to `COC(=O)N[C@@H]1CC[C@H](C(=O)N2CCC[C@H]2c2ncc(-c3ccc(-c4ccc(-c5cnc([C@@H]6CCCN6C(=O)[C@H](NC(=O)OC)c6ccccc6)[nH]5)cc4)cc3)[nH]2)C1` [cj-64, methyl ((1R)-2-((2S)-2-(5-(4′-(2-((2S)-1-(((1S,3R)-3-((methoxycarbonyl)amino)cyclopentyl)carbonyl)-2-pyrrolidinyl)-1H-imidazol-5-yl)-4-biphenylyl)-1H-imidazol-2-yl)-1-pyrrolidinyl)-2-oxo-1-phenylethyl)carbamate], 0.001 to 0.999 nM; to `C[C@H]1OC(=O)NC1C(=O)N1CCC[C@H]1c1ncc(-c2ccc(-c3ccc(-c4cnc([C@@H]5CCCN5C(=O)C5NC(=O)O[C@@H]5C)[nH]4)cc3)cc2)[nH]1` (stereo in doubt) [cj-133, (4S,5R,4′S,5′R)-4,4′-(4,4′-biphenyldiylbis(1H-imidazole-5,2-diyl(2S)-2,1-pyrrolidinediylcarbonyl))bis(5-methyl-1,3-oxazolidin-2-one)], 1 to 99 nM.
Still for that read-out and setting: to `COC(=O)N[C@H](C(=O)N1CCC[C@H]1c1ncc(-c2ccc(-c3ccc(-c4cnc([C@@H]5CCCN5C(=O)[C@@H](NC(=O)OC)C5CC5)[nH]4)c(F)c3)cc2)[nH]1)C(C)C` [Example D50, methyl ((1S)-1-cyclopropyl-2-((2S)-2-(5-(3-fluoro-4′-(2-((2S)-1-(N-(methoxycarbonyl)-L-valyl)-2-pyrrolidinyl)-1H-imidazol-5-yl)-4-biphenylyl)-1H-imidazol-2-yl)-1-pyrrolidinyl)-2-oxoethyl)carbamate] belongs 0.001 to 0.999 nM.
With `CN1CCN(C(C(=O)N2CCC[C@H]2c2ncc(-c3ccc(-c4ccc(-c5cnc([C@@H]6CCCN6C(=O)[C@@H]6CCCO6)[nH]5)cc4)cc3)[nH]2)c2ccccc2)CC1` (stereo partly drawn) [Example 104, 1-methyl-4-(2-oxo-1-phenyl-2-((2S)-2-(5-(4′-(2-((2S)-1-((2S)-tetrahydro-2-furanylcarbonyl)-2-pyrrolidinyl)-1H-imidazol-5-yl)-4-biphenylyl)-1H-imidazol-2-yl)-1-pyrrolidinyl)ethyl)piperazine], the EC50 is 0.001 to 0.999 nM.
As to `COC(=O)N[C@H](C(=O)N1CC[C@@H](O)[C@H]1c1ncc(-c2ccc(-c3ccc(-c4cnc([C@@H]5CCCN5C(=O)[C@@H](NC(=O)OC)C(C)C)[nH]4)cc3)cc2)[nH]1)C(C)C` [OL-21, methyl ((1S)-1-(((2R)-3-hydroxy-2-(4-(4′-(2-((2S)-1-((2S)-2-((methoxycarbonyl)amino)-3-methylbutanoyl)-2-pyrrolidinyl)-1H-imidazol-4-yl)-4-biphenylyl)-1H-imidazol-2-yl)-1-pyrrolidinyl)carbonyl)-2-methylpropyl)carbamate], the EC50 lay within 0.001 to 0.999 nM.
With `O=C([C@H](O)c1ccccc1)N1CCC[C@H]1c1ncc(-c2ccc(-c3ccc(-c4cnc([C@@H]5CCCN5C(=O)[C@H](O)c5ccccc5)[nH]4)cc3)cc2)[nH]1` [Example 2, (1R,1′R)-2,2′-(4,4′-biphenyldiylbis(1H-imidazole-5,2-diyl(2S)-2,1-pyrrolidinediyl))bis(2-oxo-1-phenylethanol)], the EC50 lay in the range of 0.001 to 0.999 nM.
